From ChEMBL document CHEMBL1201862, “PubChem BioAssay data set” (2004)
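Interpolation was linear, between the two tested concentrations surrounding the appropriate level; five concentrations were tested over 48 hours in 96-well plates. GI50 marks 50% less growth.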 Active and inactive are the calls of the source. Cut-off read from the data, not from the text of the source: active = GI50 up to about 1.1 µM and inactive = higher.

Experiments:
Test in all cases: growth of human tumour cells (NCI), 48 h
RXF 393 = test system: RXF 393
SK-MEL-2 = test system: SK-MEL-2
NCI-H522 = test system: NCI-H522
OVCAR-8 = test system: OVCAR-8
CCRF-CEM = test system: CCRF-CEM
NCI-H23 = test system: NCI-H23
ACHN = test system: ACHN
MOLT-4 = test system: MOLT-4
SK-MEL-5 = test system: SK-MEL-5
SW-620 = test system: SW-620
UACC-62 = test system: UACC-62
OVCAR-4 = test system: OVCAR-4
PC-3 = test system: PC-3
HT-29 = test system: HT-29
KM12 = test system: KM12
SNB-75 = test system: SNB-75
MCF7 = test system: MCF7
SNB-19 = test system: SNB-19
K562 = test system: K562
U-251 = test system: U-251
HCC 2998 = test system: HCC 2998
HCT-15 = test system: HCT-15
A549 = test system: A549
OVCAR-5 = test system: OVCAR-5
HOP-62 = test system: HOP-62
COLO 205 = test system: COLO 205
TK-10 = test system: TK-10
SF-295 = test system: SF-295
MDA-N = test system: MDA-N
CAKI-1 = test system: CAKI-1
SR = test system: SR
SK-OV-3 = test system: SK-OV-3
RPMI-8226 = test system: RPMI-8226
M14 = test system: M14
LOX IMVI = test system: LOX IMVI
EKVX = test system: EKVX
SF-539 = test system: SF-539
SN12C = test system: SN12C
786-0 = test system: 786-0
HL-60 = test system: HL-60
OVCAR-3 = test system: OVCAR-3
NCI/ADR-RES = test system: NCI/ADR-RES
UO-31 = test system: UO-31
IGROV-1 = test system: IGROV-1
T47D = test system: T47D
SK-MEL-28 = test system: SK-MEL-28
NCI-H460 = test system: NCI-H460
MDA-MB-435 = test system: MDA-MB-435
Malme-3M = test system: Malme-3M
NCI-H226 = test system: NCI-H226
MDA-MB-231 = test system: MDA-MB-231
HCT-116 = test system: HCT-116
DU-145 = test system: DU-145
SF-268 = test system: SF-268
UACC-257 = test system: UACC-257
A498 = test system: A498

SMILES: CC(CN(C)C)Nc1c2ccccc2nc2cccc([N+](=O)[O-])c12 (stereo not given)
- GI50 (RXF 393): < 0.01 µM (active)
- GI50 (SK-MEL-2): < 0.01 µM (active)
- GI50 (NCI-H522): < 0.0153 µM (active)

SMILES: C1CCC2C(C1)CCCC2NC1=NCCO1 (stereo not given)
- GI50 (OVCAR-8): > 100 µM (inactive)
- GI50 (CCRF-CEM): > 100 µM (inactive)
- GI50 (NCI-H23): > 100 µM (inactive)
- GI50 (ACHN): > 100 µM (inactive)
- GI50 (MOLT-4): > 100 µM (inactive)
- GI50 (SK-MEL-5): 70 µM (inactive)
- GI50 (SW-620): > 100 µM (inactive)
- GI50 (UACC-62): > 100 µM (inactive)
- GI50 (OVCAR-4): > 100 µM (inactive)
- GI50 (PC-3): 93.5 µM (inactive)
- GI50 (RXF 393): 86.7 µM (inactive)
- GI50 (HT-29): 35.7 µM (inactive)
- GI50 (KM12): > 100 µM (inactive)
- GI50 (SNB-75): 72.8 µM (inactive)
- GI50 (MCF7): 69.2 µM (inactive)
- GI50 (SNB-19): > 100 µM (inactive)
- GI50 (K562): > 100 µM (inactive)
- GI50 (U-251): > 100 µM (inactive)
- GI50 (HCC 2998): 72.9 µM (inactive)
- GI50 (HCT-15): > 100 µM
- GI50 (A549): > 100 µM (inactive)
- GI50 (OVCAR-5): > 100 µM (inactive)
- GI50 (HOP-62): > 100 µM (inactive)
- GI50 (COLO 205): > 100 µM (inactive)
- GI50 (TK-10): > 100 µM (inactive)
- GI50 (SF-295): > 100 µM (inactive)
- GI50 (MDA-N): > 100 µM (inactive)
- GI50 (SK-MEL-2): > 100 µM (inactive)
- GI50 (CAKI-1): > 100 µM (inactive)
- GI50 (SR): 45 µM (inactive)
- GI50 (SK-OV-3): > 100 µM (inactive)
- GI50 (RPMI-8226): 92.5 µM (inactive)
- GI50 (M14): 40 µM (inactive)
- GI50 (LOX IMVI): > 100 µM (inactive)
- GI50 (EKVX): > 100 µM (inactive)
- GI50 (SF-539): > 100 µM (inactive)
- GI50 (SN12C): > 100 µM (inactive)
- GI50 (786-0): > 100 µM (inactive)
- GI50 (HL-60): > 100 µM (inactive)
- GI50 (OVCAR-3): > 100 µM (inactive)
- GI50 (NCI/ADR-RES): > 100 µM (inactive)
- GI50 (UO-31): > 100 µM (inactive)
- GI50 (IGROV-1): > 100 µM (inactive)
- GI50 (T47D): > 100 µM (inactive)
- GI50 (SK-MEL-28): 76 µM (inactive)
- GI50 (NCI-H460): > 100 µM (inactive)
- GI50 (MDA-MB-435): > 100 µM (inactive)
- GI50 (Malme-3M): > 100 µM (inactive)
- GI50 (NCI-H226): > 100 µM (inactive)
- GI50 (MDA-MB-231): > 100 µM (inactive)
- GI50 (HCT-116): > 100 µM (inactive)
- GI50 (NCI-H522): > 100 µM (inactive)
- GI50 (DU-145): > 100 µM (inactive)
- GI50 (SF-268): > 100 µM (inactive)
- GI50 (UACC-257): 69.3 µM (inactive)
- GI50 (A498): > 100 µM (inactive)

SMILES: COc1ccc2cc(C(=O)Nc3ccc(O)c(C(=O)O)c3)ccc2c1OC
- GI50 (OVCAR-8): > 100 µM (inactive)
- GI50 (CCRF-CEM): > 100 µM (inactive)
- GI50 (NCI-H23): > 100 µM (inactive)
- GI50 (ACHN): > 100 µM (inactive)
- GI50 (MOLT-4): > 100 µM (inactive)
- GI50 (SK-MEL-5): > 100 µM (inactive)
- GI50 (SW-620): > 100 µM (inactive)
- GI50 (UACC-62): > 100 µM (inactive)
- GI50 (OVCAR-4): 72.6 µM (inactive)
- GI50 (PC-3): > 100 µM (inactive)
- GI50 (HT-29): > 100 µM (inactive)
- GI50 (KM12): > 100 µM (inactive)
- GI50 (SNB-75): > 100 µM (inactive)
- GI50 (MCF7): > 100 µM (inactive)
- GI50 (SNB-19): > 100 µM (inactive)
- GI50 (K562): > 100 µM (inactive)
- GI50 (U-251): > 100 µM (inactive)
- GI50 (HCC 2998): > 100 µM (inactive)
- GI50 (HCT-15): > 100 µM
- GI50 (OVCAR-5): > 100 µM (inactive)
- GI50 (HOP-62): > 100 µM (inactive)
- GI50 (TK-10): > 100 µM (inactive)
- GI50 (MDA-N): > 100 µM (inactive)
- GI50 (SK-MEL-2): > 100 µM (inactive)
- GI50 (CAKI-1): > 100 µM (inactive)
- GI50 (SR): > 100 µM (inactive)
- GI50 (SK-OV-3): > 100 µM (inactive)
- GI50 (RPMI-8226): > 100 µM (inactive)
- GI50 (M14): > 100 µM (inactive)
- GI50 (LOX IMVI): > 100 µM (inactive)
- GI50 (EKVX): > 100 µM (inactive)
- GI50 (SF-539): > 100 µM (inactive)
- GI50 (SN12C): > 100 µM (inactive)
- GI50 (786-0): > 100 µM (inactive)
- GI50 (HL-60): > 100 µM (inactive)
- GI50 (OVCAR-3): > 100 µM (inactive)
- GI50 (NCI/ADR-RES): > 100 µM (inactive)
- GI50 (UO-31): > 100 µM (inactive)
- GI50 (IGROV-1): > 100 µM (inactive)
- GI50 (T47D): > 100 µM (inactive)
- GI50 (SK-MEL-28): > 100 µM (inactive)
- GI50 (NCI-H460): > 100 µM (inactive)
- GI50 (MDA-MB-435): > 100 µM (inactive)
- GI50 (Malme-3M): > 100 µM (inactive)
- GI50 (NCI-H226): > 100 µM (inactive)
- GI50 (MDA-MB-231): > 100 µM (inactive)
- GI50 (HCT-116): > 100 µM (inactive)
- GI50 (NCI-H522): 49.4 µM (inactive)
- GI50 (DU-145): > 100 µM (inactive)
- GI50 (SF-268): > 100 µM (inactive)
- GI50 (UACC-257): > 100 µM (inactive)
